We go through one substance from PMC11187126, “Structure and dynamics of the pyroglutamylated RF-amide peptide QRFP receptor GPR103” (Nature Communications, 2024).

This assay addresses T1, GPR103 I26N-termA (Homo sapiens, UniProt Q96P65, I26A).
T1 construct: we used human full-length QRFPR-encoding plasmids; expressed in transfected cells; host or cells: HEK293 cells, pCAGGS vector
T1 sequence (Q96P65 1-431 I26A): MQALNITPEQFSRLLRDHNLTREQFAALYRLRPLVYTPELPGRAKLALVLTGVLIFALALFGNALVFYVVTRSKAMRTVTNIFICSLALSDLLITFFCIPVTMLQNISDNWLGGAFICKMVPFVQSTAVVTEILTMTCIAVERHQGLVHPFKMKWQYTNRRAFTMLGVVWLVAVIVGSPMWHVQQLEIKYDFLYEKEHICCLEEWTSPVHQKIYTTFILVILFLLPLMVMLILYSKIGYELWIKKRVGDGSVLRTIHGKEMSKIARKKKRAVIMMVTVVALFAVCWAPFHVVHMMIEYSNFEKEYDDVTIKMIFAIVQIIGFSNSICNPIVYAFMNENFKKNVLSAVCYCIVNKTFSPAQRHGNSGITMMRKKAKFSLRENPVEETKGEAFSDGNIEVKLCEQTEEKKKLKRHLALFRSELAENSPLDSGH
In words: TGFα shedding assay; Exp. level WT (1:20). It counts as cell-based.

No end group written: not given here.

Consider TSGPLGNLAEELNGYSRKKGGFSFRF-NH2 [QRFP26], for which, where the note is “mean”, the Emax (usually the maximal effect, on the per cent scale that the assay sets) was found to be 95.1%. Besides, where the note is “n = 3”, the EC50 – broadly, the midpoint of the concentration-response curve – was 43.7 nM and the Emax came out at 97.6 ± 5%.
